Experimental data reported in the supplement of paper PMC12420376.

Assays:
OVCAR8 = test: drug sensitivity score (DSS2) on cancer cell count; higher = more sensitive; extreme values may be limits of the assay; details: 72 h
Outline: (§1)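 Screen quality was checked by Z', and a drug sensitivity score was derived in Breeze from logistic fits of the cancer cell counts. These counts were obtained by imaging at 10× (4 fields) after fixing and immunostaining for CK8/18 with Hoechst. Before that, ovarian cancer cells, alone or in 1:1 direct co-culture with lung or skin fibroblasts, had been treated for 72 h on 384-well plates acoustically pre-spotted with 528 approved and investigational compounds at 5 concentrations.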

KURAMOCHI = test: as above; details: 72 h
Outline: as §1

[1] = co-cultured fibroblast: BJHTERT
[2] = co-cultured fibroblast: none (monoculture)

Structure (SMILES)	drug sensitivity score (OVCAR8; [1]) [DSS]	drug sensitivity score (OVCAR8; co-cultured fibroblast: WI38) [DSS]	drug sensitivity score (OVCAR8; [2]) [DSS]	drug sensitivity score (KURAMOCHI; [1]) [DSS]	drug sensitivity score (KURAMOCHI; co-cultured fibroblast: WI38) [DSS]	drug sensitivity score (KURAMOCHI; [2]) [DSS]
COc1ccc(C[C@H](NC(=O)[C@H](C)NC(=O)CN2CCOCC2)C(=O)N[C@@H](Cc2ccccc2)C(=O)C2(C)CO2)cc1 (stereo in doubt) [ONX-0914]	8.4	16.1	17.8	15.7	17.7	17.6
Cn1cc(C[C@@H](N)C(=O)O)c2ccccc21 [1-methyl-D-tryptophan]	0	0	0	0	0	10.3
CC/C(=C(\c1ccc(O)cc1)c1ccc(OCCN(C)C)cc1)c1ccccc1 [4-hydroxytamoxifen]	0.2	0	4.9	4.8	1.8	2.2
Nc1ncnc2c1nc(N)n2[C@@H]1O[C@H](CO)[C@@H](O)[C@H]1O [8-amino-adenosine]	17.9	16.5	19.5	21	20.3	21.4
Nc1ncnc2c1nc(Cl)n2[C@@H]1O[C@H](CO)[C@@H](O)[C@H]1O [8-chloro-adenosine]	12.9	9.9	16.9	10.1	10.4	10.3
COc1cc2c(cc1OCCCN1CCCC1)N=C(N)C21CCC1 [A-366]	4.1	0	0.3	2.1	0.5	0
COc1ccc(S(=O)(=O)Nc2cccnc2Nc2ccc(O)cc2)cc1 [ABT-751]	18.7	15.9	19.3	14.5	17.3	17.9
C[C@H](Nc1ncnc2[nH]cnc12)c1cc2ccc(F)cc2nc1-c1ccccn1 [AMG319]	0	5.8	0	1.2	0	0
CC(C)[C@@H](CS(=O)(=O)C(C)C)N1C(=O)[C@@](C)(CC(=O)O)C[C@H](c2cccc(Cl)c2)[C@H]1c1ccc(Cl)cc1 [AMG-232]	1.6	0	0.7	0.2	0	0.5
COCCOc1cnc2ccn([C@H](C)c3nnc4c(F)cc(-c5cnn(C)c5)cn34)c(=O)c2c1 [AMG-337]	0	0	0	0	0	0
CC1CCC(n2c3cnccc3c3cnc(Nc4ccc5c(n4)CCN(C(=O)CO)C5)nc32)CC1 (stereo not drawn) [AMG-925]	0	0	0	0	2.2	0
COCC1(CO)C(=O)C2CCN1CC2 (stereo not drawn) [APR-246]	0	0	0	0	0	0
CC(C)[C@H](C(=O)Nc1ccc(C(=O)NO)cc1)c1ccccc1 [AR-42]	17.8	15.3	18.8	14	15.8	12.3
Cc1sc2c(c1C)C(c1ccc(Cl)cc1)=N[C@@H](CC(=O)Nc1ccc(OCCOCCOCCOCCNc3cccc4c3C(=O)N(C3CCC(=O)NC3=O)C4=O)cc1)c1nnc(C)n1-2 (stereo partly drawn) [ARV-825]	19.6	14.7	18.8	6.9	7.9	4.5
COc1cc(N2CCC(N3CCN(C)CC3)CC2)ccc1Nc1ncnc(Nc2ccccc2S(=O)(=O)C(C)C)n1 [ASP3026]	8.6	3.1	4.7	7.7	2	5.7
O=C(NC1CCNCC1)c1n[nH]cc1NC(=O)c1c(Cl)cccc1Cl [AT7519]	21.6	17.5	19.9	17.3	18.8	19.6
O=C(Nc1c[nH]nc1-c1nc2ccc(CN3CCOCC3)cc2[nH]1)NC1CC1 [AT9283]	10.7	14.2	9	15.8	16	19.6
CN[C@@H](C)C(=O)N[C@H]1CN(C(=O)CC(C)C)CC[C@H]2CC[C@@H](C(=O)NC(c3ccccc3)c3ccccc3)N2C1=O [AT-406]	10	9.9	9.7	0	0	0
CC[C@H](CC#N)OC(=O)N[C@@H](C)c1cccc(NC(=O)Nc2ccc(-c3cnco3)c(OC)c2)c1 [AVN944]	22.4	15	26.6	12.7	17.5	19.4
COc1cc(N2CCN(C)CC2)ccc1Nc1nccc(-c2cn(C)c3cnccc23)n1 [AZ191]	3.3	2	1.3	5.9	2.3	6.9
COc1cc(OC2CCN(C)CC2)ccc1Nc1ncc2c(n1)n(C1CCCC1)c(=O)n2C [AZ 3146]	8.3	9.6	4.3	1.8	3.2	1.5
CN(C)CCCOc1ccc(-c2ccc3ncc4c(c3c2)n(C2CCOCC2)c(=O)n4C)cn1 [AZD0156]	6.4	6.8	0.5	2.5	1.4	0.7
N[C@@H]1CCCN(c2c(/C=C3\SC(=O)NC3=O)cccc2-c2ccccc2)C1 [AZD1208]	0	0	1.8	0	1.7	1.3
Cc1cc(Nc2nc(N[C@@H](C)c3ncc(F)cn3)ncc2Cl)[nH]n1 [AZD1480]	0.4	0	0.4	0.1	0.7	0
C=CCn1c(=O)c2cnc(Nc3ccc(N4CCN(C)CC4)cc3)nc2n1-c1cccc(C(C)(C)O)n1 [AZD1775]	21	14.9	18.4	15.3	12.7	13.2
COc1cc2ncnc(Nc3cccc(Cl)c3F)c2cc1OC(=O)N1CCN(C)C[C@H]1C [AZD3759]	0.8	3.6	0	1.1	0	0
Cc1[nH]nc(C(F)(F)F)c1Cc1sc2c(c1C(=O)N1C[C@](C)(O)CO1)c(=O)n(C)c(=O)n2C(C)C [AZD3965]	0	0	0	0	1.7	0

Structure (SMILES)	drug sensitivity score (OVCAR8; [1]) [DSS]	drug sensitivity score (OVCAR8; co-cultured fibroblast: WI38) [DSS]	drug sensitivity score (OVCAR8; [2]) [DSS]	drug sensitivity score (KURAMOCHI; [1]) [DSS]	drug sensitivity score (KURAMOCHI; co-cultured fibroblast: WI38) [DSS]	drug sensitivity score (KURAMOCHI; [2]) [DSS]
COc1cc(CCc2cc(NC(=O)c3ccc(N4CC(C)NC(C)C4)cc3)n[nH]2)cc(OC)c1 (stereo not drawn) [AZD4547]	0	0	0	0	0	0
C[C@@H]1COCCN1c1cc(C2([S@](C)(=N)=O)CC2)nc(-c2cc[nH]c3nccc2-3)n1 [AZD6738]	11.1	4.4	8.1	10.4	8.6	10.9
CN(C)C(=O)c1ccc(S(=O)(=O)c2ccc(NC(=O)[C@@](C)(O)C(F)(F)F)c(Cl)c2)cc1 [AZD7545]	3.4	0	0.7	0.4	0	0
NC(=O)Nc1cc(-c2cccc(F)c2)sc1C(=O)N[C@H]1CCCNC1 [AZD7762]	7.3	9.2	4.5	8.7	6.6	22.4
COc1ccc(-c2ccc3c(N4CCOC[C@@H]4C)nc(N4CCOC[C@@H]4C)nc3n2)cc1CO [AZD8055]	17.9	11.4	21	21.3	18.1	19
N#Cc1ccc2[nH]c(O)c(-c3ccc(CN4CCOCC4)cn3)c2c1 [AZD-1080]	0.1	0	0	0	0	0
Cc1ncc(-c2ccnc(Nc3ccc(S(C)(=O)=O)cc3)n2)n1C(C)C [AZD-5438]	19	19.2	17.2	17.8	22.5	17.7
Cc1cc([C@@H](C)Nc2ccccc2C(=O)O)c2nc(N3CCOCC3)cc(=O)n2c1 [AZD-6482]	1.2	0	0	6.1	1.5	4.4
C[C@@H](Nc1cc(F)cc(F)c1)c1cc(C(=O)N(C)C)cc2c(=O)cc(N3CCOCC3)oc12 [AZD-8186]	0	0	0.8	8.7	3.8	6.5
CCN1CCN(Cc2ccc(Nc3ncc(F)c(-c4cc(F)c5nc(C)n(C(C)C)c5c4)n3)nc2)CC1 [Abemaciclib]	9.4	0	2.4	5.5	7.8	0.2
CN(C)Cc1c(C(=O)NCCOc2ccc(C(=O)NO)cc2)oc2ccccc12 [Abexinostat]	25.3	18.5	27.9	17.2	20.6	15.7
C[C@]12CC[C@H](O)CC1=CC[C@@H]1[C@@H]2CC[C@]2(C)C(c3cccnc3)=CC[C@@H]12 [Abiraterone]	0	0	0	0	0	0
CC#CC(=O)N1CCC[C@H]1c1nc(-c2ccc(C(=O)Nc3ccccn3)cc2)c2c(N)nccn12 [Acalabrutinib]	0	0	0	0	0	11
CN(C)C/C=C/C(=O)Nc1cc2c(Nc3ccc(F)c(Cl)c3)ncnc2cc1O[C@H]1CCOC1 [Afatinib]	3.1	0	2.4	5.3	5	3.1
Cn1ncc(Cl)c1-c1cc(C(=O)N[C@H](CN)Cc2cccc(F)c2)sc1Cl [Afuresertib]	0.3	0	0	1.1	0	0
COc1cccc2c1C(=O)c1c(O)c3c(c(O)c1C2=O)C[C@@](O)(/C(CO)=N/NC(=O)CCCCCN1C(=O)C=CC1=O)C[C@@H]3O[C@H]1C[C@H](N)[C@H](O)[C@H](C)O1 [Aldoxorubicin]	12.9	11.7	13.1	13.3	13.8	19.1
CCc1cc2c(cc1N1CCC(N3CCOCC3)CC1)C(C)(C)c1[nH]c3cc(C#N)ccc3c1C2=O [Alectinib]	0	0	0	0	0	0
Oc1ncnc2[nH]ncc12 [Allopurinol]	0	0	0	0	0	0
Cc1nc(NC(=O)N2CCC[C@H]2C(N)=O)sc1-c1ccnc(C(C)(C)C(F)(F)F)c1 [Alpelisib]	0	0	0.4	0	0	0
CN1CC[C@H](c2c(O)cc(O)c3c(=O)cc(-c4ccccc4Cl)oc23)[C@H](O)C1 [Alvocidib]	20.8	21.6	21	19.3	20.2	20.9
CCN(CC)CCNC(=O)c1c(C)[nH]c(/C=C2\C(=O)Nc3ccc(-c4csc(-c5ccccc5)n4)cc32)c1C [Amcasertib]	3.3	3.1	0	8.1	3.9	6.7
CCC1(c2ccc(N)cc2)CCC(=O)NC1=O (stereo not drawn) [Aminoglutethimide]	0	0.4	0	5.8	0	0
COc1cc(NS(C)(=O)=O)ccc1Nc1c2ccccc2nc2ccccc12 [Amsacrine]	20.1	19.2	23.8	14.4	18.8	21.8
S=C(NCc1ccc2c(c1)OCO2)N1CCN(c2ncnc3c2oc2ccccc23)CC1 [Amuvatinib]	8.6	0	2.2	2.5	0.5	0
O=C1CN2Cc3c(ccc(Cl)c3Cl)N=C2N1 [Anagrelide]	0	11.9	0	0	0	0
CC(C)(C#N)c1cc(Cn2cncn2)cc(C(C)(C)C#N)c1 [Anastrozole]	0	0	0	0	0	0
